Experimental data reported in patent EP0103895A2, “Novel hydroxylamine derivatives, production and use thereof” (MEIJI SEIKA KABUSHIKI KAISHA, priority 1982, dated 1984).
Values joined by “and” are separate entries in the source; they are usually repeats but may differ in a detail not shown here. Equal entries are not always repeated.

Tests used:
[1] = system: canine hookworm (Ancylostoma caninum); test: Anthelmintic test in naturally infected dogs with mixed infections, E.P.G. on 7th day: canine hookworm (Test Examples A3, B3, C3, D3); format: in vivo; settings: dogs, 30 mg/Kg orally once, one value per dog
Experimental: (§1) Three dogs with mixed infections by canine whipworm (Trichuris vulpis), canine hookworm (Ancylostoma caninum) and canine roundworm (Toxocara canis) (naturally infected dogs) were employed in a group of two and a group of one.
(§2) The compound provided for the test was Compound No.Al, and 20 mg/Kg thereof was placed in a gelatin capsule per 1 Kg of body weight, and administered orally to the two dogs. As control, only a gelatin capsule was administered orally to the one dog.
(§3) Before administration and on the 7th day after administration, fecal matter testing was conducted to calculate the E.P.G., and the anthelmintic effect was judged by the changing of the E.P.G. to negative.
(§4) As control, only gelatin capsules were administered orally to the one dog.
(§5) The same method as in Test Example A3, but the compound provided for the test was Compound No. Cl. 30 mg/Kg of this compound was placed in a gelatin capsule per 1 Kg of body weight and administered orally to the two dogs. As control, only gelatin capsules were administered orally to the one dog.

[2] = system: Diphyllobothrium erinacei; test: Test of anthelmintic effect against Diphyllobothrium erinacei (tapeworm) in experimentally infected cats (Test Examples A5, B5, C5, D5)
[3] = system: canine whipworm (Trichuris vulpis); test: Anthelmintic test in naturally infected dogs with mixed infections, E.P.G. on 7th day: canine whipworm (Test Examples A3, B3, C3, D3); format: in vivo
Experimental: as §1, §2, §3, §4, §5

[4] = system: fowl roundworm (Ascaridia galli); test: Anthelmintic test in chickens artificially infected with fowl roundworm, single oral dose in gelatin capsule, worm bodies counted within 48 hours (Test Examples A1, B1, C1, D1); format: in vivo; settings: Ascaridia galli, po, 48 h, chickens, one value per chicken (No.1-3), read-out: Anthelmintic effect after 48 hours
Procedure, shortened: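 Groups of three chickens with confirmed Ascaridia galli infection given a single oral dose in gelatin capsule (10 and 20 mg/kg in A1 and B1; 30 and 50 mg/kg in C1; 15 and 30 mg/kg in D1). Worms expelled over 48 h and those remaining in the gut at necropsy counted to give anthelmintic percentage.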

[5] = system: swine Oesophagostomum (Oesophagostomum dentatum); test: Test of anthelmintic effect against swine Oesophagostomum in naturally infected pigs, E.P.G. on 7th day (Test Examples A8, B8, C8, D8); format: in vivo; settings: pigs
Experimental: Six pigs infected with swine Oesophagostomum (naturally infected pigs) were employed by grouping them into groups each of two pigs.
As a control, only gelatin capsules were administered orally to the two pigs.
as §3

[6] = system: fowl roundworm (As. galli); test: Anthelmintic test in chickens artificially infected with fowl roundworm, compound added to feed, E.P.G. and worm count up to 21st day (Test Examples A2, B2, C2, D2); format: in vivo, Ascaridia galli; settings: Ascaridia galli, po, 504 h, chickens, worm count on 21st day, one value per chicken, read-out: Anthelmintic effect
[7] = system: Liver fluke; Fasciola hepatica (F. hepatica); test: Test of anthelmintic effect against rat infected experimentally with liver fluke (Test Examples A11, B11, C11, D11); format: in vivo
[8] = system: stomach worm (Haemonchus controtus); test: Anthelmintic test against cow stomach worm in naturally infected cows, E.P.G. on 7th day (Test Examples A6, B6, C6, D6); format: in vivo; settings: cows
Experimental: Three cows infected with stomach worm (naturally infected cows) were employed by grouping them into a group of two and a group of one.
(§6) As control, only gelatin capsules were administered orally to the one cow.
as §3, §6, §6

[9] = system: canine roundworm (Toxocara canis); test: Anthelmintic test in naturally infected dogs with mixed infections, E.P.G. on 7th day: canine roundworm (Test Examples A3, B3, C3, D3); format: in vivo; settings: dogs, 30 mg/Kg orally once, one value per dog
Experimental: as §1, §2, §3, §4, §5

Compound: C=CCN(OC)C(C)=O [Compound B1, N-allyl-N-acetyl-O-methylhydroxylamine]
- Change of E.P.G. Before administration ([1]; baseline, 30 mg/kg): 4,500 E.P.G. and 8,700 E.P.G.
- Change of E.P.G. 7th day [1]: 0 E.P.G.
- Number of worm bodies remaining in enteron ([2]; cats infected with 5 plerocercoids, 50 mg/Kg x 5 times orally, autopsy ten days after administration, one value per cat): 0
- Worm egg detection on 10th day after administration ([2]; cats, 50 mg/Kg x 5 orally, one value per cat (Table B7)): -
- anthelmintic effect ([2]; cats, 5 continuous administrations of 50 mg/Kg): marked anthelmintic effects
- anthelmintic effect ([3]; dogs with mixed infections (Trichuris vulpis, Ancylostoma caninum, Toxocara canis; statement covers all three), one administration of 30 mg/Kg): marked anthelmintic effect
- Change of E.P.G. Before administration ([3]; dogs, 30 mg/Kg orally once, Trichuris vulpis, baseline, one value per dog, 30 mg/kg): 5,100 E.P.G. and 2,700 E.P.G.
- Change of E.P.G. 7th day ([3]; dogs, 30 mg/Kg orally once, Trichuris vulpis, one value per dog): 0 E.P.G.
- inhibition in vivo at 30 mg/kg ([4]; 30 mg/Kg orally in gelatin capsule): 100%
- inhibition in vivo at 50 mg/kg ([4]; 50 mg/Kg orally in gelatin capsule): 100%
- Change of E.P.G. Before administration ([5]; 20 mg/Kg orally once, baseline, one value per pig, 20 mg/kg): 1,200 E.P.G. and 2,600 E.P.G.
- Change of E.P.G. 7th day ([5]; 20 mg/Kg orally once, one value per pig): 0 E.P.G.
- anthelmintic effect ([5]; one administration of 20 mg/Kg): marked anthelmintic effect
- inhibition in vivo at 20 ppm ([6]; 20 ppm added to feed): 80 to 90%
- inhibition in vivo at 50 ppm ([6]; 50 ppm added to feed): 100%
- Condition of fluke body ([7]; rat, 50 mg/Kg x 5): dead
- Presence or absence of fluke egg in fecal matter On 21st day after the last administration ([7]; rat, 50 mg/Kg x 5): -
- anthelmintic effect ([7]; rats, five administrations in a dose of 50 mg/Kg each): marked antihelmintic effect
- Change of E.P.G. Before administration ([8]; 20 mg/Kg orally once, baseline, one value per cow, 20 mg/kg): 2,500 E.P.G. and 3,300 E.P.G.
- Change of E.P.G. 7th day ([8]; 20 mg/Kg orally once, one value per cow): 0 E.P.G.
- anthelmintic effect ([8]; one administration of 20 mg/Kg): marked anthelmintic effect
- Change of E.P.G. Before administration ([9]; baseline, 30 mg/kg): 6,100 E.P.G. and 3,200 E.P.G.
- Change of E.P.G. 7th day [9]: 0 E.P.G.
